Reference: patent US9155723B2, “Anti-CXCR4 as a sensitizer to cancer therapeutics” (THE GENERAL HOSPITAL CORPORATION, priority 2010, dated 2015)
“Also recorded” adds a separate entry of the source. Like-named read-outs stand apart in the source and are kept apart here.

Legend:
CXCL12 = conditions: cited from earlier work
54A human lung tumors = conditions: AMD3100 osmotic pumps alone for 2 weeks, no irradiation; 54A tumors
Text: (§1) 54A human lung tumors were xenografted in male athymic NCr/Sed nude (nu/nu) mice, and MCa8 mouse mammary carcinomas were implanted in female syngeneic FVB mice (both subcutaneously in the hind limb; refs. 3, 11). To detect specific BMDC populations in tumors (i.e., Tie2^+CD11b^− EPCs and Tie2^+CD11b^+ TEMs), irradiated wild-type FVB mice were irradiated with 9 Gy of whole-body irradiation (WBI) followed by restorative bone marrow transplantation (BMT) from Tie2-GFP-FVB donors to create chimeric wild-type/Tie2-GFP-BMT mice (3). MCa8 tumors were implanted in these mice 6 weeks post-BMT.
(§2) Tumor size was measured with a caliper at least thrice a week. When a tumor reached 5.5 mm in mean diameter, the mouse was randomized to a treatment group. Tumors were γ-irradiated using the same dose delivered either locally alone or locally plus a sublethal WBI dose of 6 Gy. […] Unsorted BMDCs (from femurs and tibias of one tumor- and treatment-naïve donor to two recipients) or fluorescence-activated cell-sorted Sca1^−CD11b^+ (150,000-200,000 cells) or Sca1^+CD11b^+ (25,000-50,000) BMDCs (from one donor to one recipient) were i.v. infused in mice receiving LI plus WBI. […] Therapeutic efficacy was measured as the time taken for tumors to grow to 7.5 mm in diameter (i.e., 2.5-fold increase compared with the pretreatment volume).

[1] = system: MCa8 mouse mammary carcinomas; conditions: AMD3100 osmotic pumps alone for 2 weeks, no irradiation; MCa8 tumors
Text: as §1, §2

Gr-1+ BMDCs = conditions: in vitro
Procedure: (§3) Bone marrow cells were collected in heparin-mixed PBS. The cellular filtrate was washed and a layer containing mononuclear BM cells was separated using Histopaque-1083 (Sigma). For the migration assay, BM cells were separated by CD11b, F4/80, or Gr-1 magnetic microbeads (MACS-beads; Miltenyi Biotech) from VEGFR1TK+/+ and VEGFR1TK−/− mice as per manufacturer's protocol. These cells were incubated with recombinant proteins for migration assays
(§4) The migration of mononuclear CD11b+ BMDCs (2×10^6 cells per mL), F4/80+ BMDCs (8×10^5 cells per mL), and Gr-1+ BMDCs (8×10^5 cells per mL) was evaluated using a chemotaxis Boyden chamber (Neuroprobe). The upper and lower wells were separated by a […] pore size polyvinylpyrrolidone-free polycarbonate filter (Nucreopore; Costar). […] A 50-μl aliquot of the cell suspension was seeded in the upper wells and incubated for 3 h at 37° C. with 5% CO2. The number of cells that migrated through the membrane was counted.

TRAMP-C1 prostate tumors [2] = system: TRAMP-C1 prostate tumors
Procedure: (§5) AMD3100 was delivered by s.c. Alzet pumps containing 10 mg/mL AMD3100 in PBS at a dose of 60 μg/day, and pumps with PBS only were used as a control. The pumps were replaced every 2 wk.
(§6) Primary tumor tissues were fixed and frozen. Sections were stained with rat antibodies against mouse CD11b, MECA 32, Gr-1 (BD Pharmingen), and F4/80 (Serotec). Cy3- or FITC-conjugated secondary antibodies were used for the detection of signals by confocal microscopy. Slides were counterstained with DAPI for nuclear staining. The number of cells was quantified by measuring the area occupied by immunostained mononuclear cells normalized by the area of DAPI-stained nuclei (i.e., unitless). Phopho-p38 MAPK level was measured by Western blotting.
(§7) Primary tumor tissues were fixed in 4% paraformaldehyde at 4° C. for 2 h, dehydrated in 30% sucrose overnight, and embedded in optimal cutting temperature (OCT) compound in frozen samples for immunofluorescence histological analyses.

E0771 mammary tumors = system: E0771 mammary tumors
Procedure: as §5, §6, §7

CD11b+ myeloid BMDCs = experiment: In vitro migration assay (Boyden chamber), CD11b+ myeloid BMDCs; type: cell-based, mouse
Procedure: as §3, §4
To reveal the mechanism of action of VEGFR1 and CXCR4 in myeloid BMDCs, bone marrow cells were harvested from C57BL/6 and VEGFR1 TK−/− mice and purified mononuclear myeloid BMDCs using magnetic separation for CD11b+ cells.

TRAMP-C1 prostate tumors [3] = system: TRAMP-C1 prostate tumors; remark: listed apart in the source
Procedure: TRAMP-C1 tumors were implanted s.c. in male C57BL/6 mice, and E0771 tumors were implanted s.c. in female C57BL/6 mice after BMT and recovery and/or after BMT and Mx-Cre recombination (n=5-6 mice) (SI Materials and Methods). […] Lung tissue was isolated from mice 2-4 wk after removal of the primary tumor.
as §5
Mice ranging from 8 to 22 wk old [due to prior bone marrow transplantation (BMT) and/or recombination procedures] were used. […] All experiments were performed at least twice. Metastatic tumor volume was measure by the formula: V=small diameter×long diameter×number of microscopic metastases.

For COc1cc2c(Oc3ccc4[nH]c(C)cc4c3F)ncnc2cc1OCCCN1CCCC1 [cediranib], the “circulating CXCL12” value (CXCL12; recurrent GBM, P < 0.001) is listed as “therapy increases”.
With c1cc(CN2CCCNCCNCCCNCC2)ccc1CN1CCCNCCNCCCNCC1 [AMD3100, 1,1′-[1,4-phenylene-bis(methylene)]-bis-1,4,8,11-tetraazacyclotetradecane] the tumor growth (54A human lung tumors) was “did not affect tumor growth”, the tumor growth [1] was “did not affect tumor growth” and the “rCXCL12-induced migration of Gr-1+ BMDCs” value (Gr-1+ BMDCs) was “reversed”. For the same compound, the TAM infiltration (TRAMP-C1 prostate tumors [2]; AMD3100 alone, TRAMP-C1) was “did not affect the TAM infiltration”, the “number of total myeloid BMDCs in tumor” value (TRAMP-C1 prostate tumors [2]; AMD3100 alone, TRAMP-C1) was “not in TRAMP-C1 tumors” and the “Gr-1+ myeloid BMDC infiltration” value (TRAMP-C1 prostate tumors [2]; irrespective of VEGFR1-TK status in BMDCs, TRAMP-C1) was “decreased Gr-1+ myeloid BMDCs; also recorded: decreases Gr-1^+ BMDC infiltration”. For the same compound, the “number of Gr-1+ BMDCs during early tumor growth” value (TRAMP-C1 prostate tumors [2]; small (4-mm) tumors, preventive setting, TRAMP-C1 model, 8-wk-old mice) was “significantly decreased the number of Gr-1+ BMDCs; also recorded: significantly reduces Gr-1^+ myeloid BMDC infiltration”, the TAM infiltration (E0771 mammary tumors; AMD3100 alone) was “did not affect the TAM infiltration” and the “number of total myeloid BMDCs in tumor” value (E0771 mammary tumors; AMD3100 alone) was “decreased the number of total myeloid BMDCs”. The “microvascular density (MVD)” value (E0771 mammary tumors; AMD3100 alone, prevention setting) was “decreased MVD”, the “Gr-1+ myeloid BMDC infiltration” value (E0771 mammary tumors; irrespective of VEGFR1-TK status in BMDCs) was “decreased Gr-1+ myeloid BMDCs; also recorded: decreases Gr-1^+ BMDC infiltration” and the “rCXCL12-induced migration of WT myeloid BMDCs” value (CD11b+ myeloid BMDCs; 1 μg/mL of AMD3100, rCXCL12 100 ng/mL, transwell assay) was “reversed”. For the same compound, the “lung metastatic burden after primary tumor resection” value (TRAMP-C1 prostate tumors [3]; BMT-VEGFR1^TK−/− mice, TRAMP-C1) was “significantly reduced metastatic burden” and the “growth of established tumors” value (TRAMP-C1 prostate tumors [3]; intervention setting, growth from 4 mm to ~1 cm, established TRAMP-C1) was “less substantial growth delay”.
In the case of C[S+]([O-])c1ccc(-c2nc(-c3ccncc3)c(-c3ccc(F)cc3)[nH]2)cc1 (centres unmarked) [SB203580], the “migration of myeloid BMDCs” value (CD11b+ myeloid BMDCs; SB203580 1 μM, rVEGF or rCXCL12, irrespective of the chemotactic stimulus) is reported as “significantly reduced the migration of myeloid BMDCs; also recorded: decreased migration of myeloid BMDCs”.
In the case of CNC(=O)c1cc(Oc2ccc(NC(=O)Nc3ccc(Cl)c(C(F)(F)F)c3)cc2)ccn1 [sorafenib], the “circulating CXCL12” value (CXCL12; advanced sarcoma, P < 0.01) is listed as “therapy increases”.
